“Also recorded” adds a separate entry of the source. Like-named read-outs stand apart in the source and are kept apart here.
Assays:
[1] = test system: ginsenoside glycosidase MT619; assay: Effects of metals and chemical reagents on MT619 activity (residual activity, pNPG substrate); type: biochemical, Microbacterium testaceum
[2] = test system: ginsenoside glycosidase MT619; assay: Ginsenoside conversion ability of MT619 (TLC); type: biochemical, Microbacterium testaceum; conditions: 2.0 mg/ml MT619, 2.0 mg/ml substrate, 37° C., 1.5 hr
Method: In order to analyze the specificity and selectivity of the enzyme for the hydrolysis of a sugar attached at the C-6 position of ginsenoside, ginsenoside Re, Rg1 and Rg2 were used as the substrates.
2.0 mg/ml of MT619 in 50 mM sodium phosphate buffer (pH 7.0) was reacted with each 2.0 mg/ml of the three substrates in 50 mM sodium phosphate (pH 6.0) at an equal volume at 37° C. In order to measure cleavage activity of MT619, the samples were collected at 1.5 hr after reaction, and an equal volume of water-saturated butanol was added to stop the reaction. The n-butanol fraction was evaporated to dryness, and residual material was dissolved in CH3OH and then examined by thin layer chromatography (TLC), and the results are given in FIG. 4.

[3] = test system: ginsenoside glycosidase MT619; assay: Substrate specificity of MT619 with chromogenic ONP and PNP substrates; type: biochemical, Microbacterium testaceum; conditions: for substrate specificity of MT619: 2.0 mM substrate, 37° C.; for Relative activity (%) MT619: final substrate concentration 2.0 mM, 37° C. for 5 minutes, relative to enzymatic activity for pNP-β-D-glucopyranoside
Method: In order to analyze substrate specificity of […], 2.0 mM chromogenic O-nitrophenyl (ONP) and p-nitrophenyl (PNP) were used as substrates, and measured at 37° C. for 5 minutes. 1 activity unit was defined as the release of 1 μmol of o-nitrophenol or p-nitrophenol per minute. Substrates used for analysis were pNP-α-L-arabinofuranoside, pNP-β-L-arabinopyranoside, pNP-α-L-D-fucopyranoside, pNP-α-L-rhamnopyranoside, pNP-α-D-glucopyranoside, pNP-α-D-mannopyranoside, pNP-β-D-galactopyranoside, oNP-β-D-glucopyranoside, oNP-β-D-fucopyranoside, pNP-β-D-xylopyranoside, pNP-β-L-arabinofuranoside, oNP-β-D-fucopyranoside, oNP-α-D-galactopyranoside, and pNP-β-D-glucopyranoside, which were purchased from Sigma.

[4] = Effect of pH on enzymatic activity and stability of MT619; type: biochemical
Method: In order to measure the effect of pH on the enzymatic activity of MT619, 2.0 mM pNPGlc (p-nitrophenyl-D-glucopyranoside; Sigma) was used as a substrate, and pH was adjusted using the following buffer (50 mM). pH range of 2 to 10: KCl—HCl (pH 2), glycine-HCl (pH 3), sodium acetate (pH 4 and pH 5), sodium phosphate (pH 6 and pH 7), Tris-HCl (pH 8 and pH 9) and glycine-sodium hydroxide (pH 10).
Further, the effect of pH on the enzymatic stability was measured. Enzyme was incubated in each of the above mentioned buffers at 4° C. for 24 hours, and then pNPGlc was analyzed in 50 mM potassium buffer to measure the enzymatic stability according to pH change. Residual activity was analyzed according to a standard analytical procedure, and the results are given in FIG. 2 as an activity percentage obtained at the optimum pH.

[5] = type: biochemical; conditions: 2.0 mM pNPGlc, 50 mM potassium phosphate buffer, 10 minutes, 4 to 65° C.
Method: In order to measure the effect of temperature on the enzymatic activity of MT619, 2.0 mM pNPGlc (p-nitrophenyl-3-Dglucopyranoside; Sigma) was used to analyze the temperature-dependent activity in the 50 mM potassium phosphate buffer at the optimum pH for 10 minutes while varying the temperature between 4 to 65° C.
Further, in order to measure the effect of temperature on the enzymatic stability of MT619, the equivalent amount of enzyme was incubated in 50 mM potassium phosphate buffer within the same temperature range for 30 minutes. In detail, the sample was cooled in ice for 10 minutes, and temperature stability analysis was performed by measuring the residual activity according to a standard analytical procedure, and the results are given in FIG. 3.

[6] = F1 production ability from ginsenoside Rg1, MT619 compared with BgpA; type: biochemical
Text: In order to evaluate production ability of MT619 to produce F1 by using Rg1 as a substrate, its F1 production ability was compared with that of ginsenoside glucosidase derived from […].
BgpA derived from Terrabacter ginsenosidimutans, which is known to produce F1 by using ginsenoside Rg1 as a substrate, was used as a comparative control group.

[7] = 10 mM reagent, 37° C. for 30 minutes, pNPG substrate, residual activity as percentage of activity without the compounds

## O[C@H](CS)[C@H](O)CS (racemic) [DTT, dithiothreitol]
[1]; [7]
  Relative activity (%): 79.6 ± 1.6%

## OCCS [Beta-Mercaptoethanol]
[1]; [7]
  Relative activity (%): 94 ± 2%

## [Ca+2].[Cl-].[Cl-] [CaCl2]
[1]; [7]
  Relative activity (%): 132.8 ± 2.4%
[1]; 10 mM, 37° C., 30 minutes, listed as Ca^2+
  effect of ions on enzymatic activity of MT619: did not greatly increase; also recorded: not greatly increased

## [Cl-].[Cl-].[Co+2] [CoCl2]
[1]
  Relative activity (%): 17.9 ± 0.5%
  effect of ions on enzymatic activity of MT619: strongly inhibited

## [Cl][Cu][Cl] [CuCl2]
[1]; 10 mM, 37° C., 30 minutes
  effect of ions on enzymatic activity of MT619: strongly inhibited

## O=C(O)CN(CCN(CC(=O)O)CC(=O)O)CC(=O)O [EDTA]
[1]
  Relative activity (%): 80.9 ± 2.3%

## [Cl][Hg][Cl] [HgCl2]
[1]; 10 mM, 37° C., 30 minutes
  effect of ions on enzymatic activity of MT619: strongly inhibited

## [Cl-].[K+] [KCl]
[1]; [7]
  Relative activity (%): 95.3 ± 1.1%
[1]; 10 mM, 37° C., 30 minutes, listed as K^+
  effect of ions on enzymatic activity of MT619: did not greatly increase; also recorded: not greatly increased

## [Cl-].[Cl-].[Mg+2] [MgCl2]
[1]; [7]
  Relative activity (%): 112.7 ± 4.1%

## [Cl][Mn][Cl] [MnCl2]
[1]; [7]
  Relative activity (%): 59.9 ± 2.6%

## [Cl-].[Na+] [Nacl, NaCl]
[1]; [7]
  Relative activity (%): 128.1 ± 3.7%
[1]; 10 mM, 37° C., 30 minutes, listed as Na^+
  effect of ions on enzymatic activity of MT619: did not greatly increase; also recorded: not greatly increased

## CC(C)=CCC[C@](C)(O[C@@H]1O[C@H](CO)[C@@H](O)[C@H](O)[C@H]1O)[C@H]1CC[C@]2(C)[C@@H]1[C@H](O)C[C@@H]1[C@@]3(C)CC[C@H](O)C(C)(C)[C@@H]3[C@@H](O[C@@H]3O[C@H](CO)[C@@H](O)[C@H](O)[C@H]3O[C@@H]3O[C@@H](C)[C@H](O)[C@@H](O)[C@H]3O)C[C@]12C [Re, ginsenoside Re]
[2]
  conversion of ginsenoside by MT619 (TLC, words): converted into ginsenoside F1

## CC(C)=CCC[C@](C)(O[C@@H]1O[C@H](CO)[C@@H](O)[C@H](O)[C@H]1O)[C@H]1CC[C@]2(C)[C@@H]1[C@H](O)C[C@@H]1[C@@]3(C)CC[C@H](O)C(C)(C)[C@@H]3[C@@H](O[C@@H]3O[C@H](CO)[C@@H](O)[C@H](O)[C@H]3O)C[C@]12C [Rg1, ginsenoside Rg1]
[2]
  conversion of ginsenoside by MT619 (TLC, words): conversion of ginsenoside Rg1 into F1 was confirmed; also recorded: converted into ginsenoside F1

## CCCCCCCCCCCCOS(=O)(=O)[O-].[Na+] [SDS]
[1]; [7]
  Relative activity (%): 80.6 ± 6.1%

## [Cl-].[Cl-].[Zn+2] [ZnCl2]
[1]; 10 mM, 37° C., 30 minutes
  effect of ions on enzymatic activity of MT619: strongly inhibited

## O=[N+]([O-])c1ccccc1O[C@@H]1O[C@H](CO)[C@@H](O)[C@H](O)[C@H]1O [oNP-β-glucopyranoside, oNP-β-D-glucopyranoside]
[3]
  substrate specificity of MT619: showed substrate specificity
  Relative activity (%) MT619: 28.7 ± 2.1%

## O=[N+]([O-])c1ccc(O[C@@H]2O[C@H](CO)[C@@H](O)[C@H](O)[C@H]2O)cc1 [pNP-β-D-glucopyranoside, p-nitrophenyl-β-D-glucopyranoside]
[3]
  substrate specificity of MT619: highest substrate specificity
  Relative activity (%) MT619: 100 ± 1.2%

B1: MT619: ginsenoside glycosidase of SEQ ID NO: 1 screened from Microbacterium testaceum, 619 amino acids (protein, listed as Microbacterium testaceum)
chain: MTHARFLTAPDGTRFRDLNGNGVMDPYENPALSVEERTDDLVSRLSLEEKVGLMFQTVIEVGDEGELLEAPGKISKSPTTTVVVGKHMNHFNVHAIRTARQAATWNNNLQALAETTPHGIPVTISTDPRHAFVENTGVAFSAGPFSQWPEGLGLAALDDVDTVREFAEVARREYVAVGIRAALHPQIDLATEPRWGRQAQTLGQDAARVTEFTAAYLQGFQGDELGPDSVACTTKHFPGGGPQLDGEDAHFPYGREQVYPGGMFDYHLEPFREAIRCGTAGMMPYYGMPVGLEVDGLPIEEVGFGYNRQIITGLLREQLGYDGVVVTDWELVNDNHVGDQVLPARAWGVEHLSAVERMEKILDAGSDQFGGEECVEMLVDLVRAGRVSEERIDESVRRLLRVKFQLGLFDDPYVDVDEAERIVGNAEFRALGERAQAHSLTVLVNEGDVLPLRPAGAVYIEGFRPDDVAELGRVVTDPAEADLAIVRIGAPFDPRDDLFLEAWFHQGSLEFAPGLVYRLQQIAASCPLILVVNLDRPAILTPFVGHAAAIVADYGSSSAAVLDALTGRVPPRGRLPIEIPRSMDAVRSSREDVPSDTGDPVFPVHHGVELKVSTGAQRG
[4]; pH 2 to 10 buffers 50 mM, stability after 4° C. for 24 hours
  pH of highest activity and stability: 7.0
[4]; summary statement of Example 3-2
  pH of highest stability: 7.0
[5]
  temperature of highest activity (optimum temperature): 45 °C
[6]; enzyme 0.1 mg/ml, Rg1 substrate
  time of highest F1 production ability after initiation of the reaction: 2 h
[6]; enzyme concentration 0.1 mg/ml, Rg1 (2.0 mg/ml) as substrate
  F1 produced: 1.3 mg
[6]; enzyme concentration 0.1 mg/ml, Rg1 as substrate
  production of F1 relative to BgpA: 7 times

Reference: patent US9926585B2, “Method for producing a minor ginsenoside using a ginsenoside glycosidase” (INTELLIGENT SYNTHETIC BIOLOGY CENTER, priority 2015, dated 2018)
